The subject of one assay is KB. Briefly: Cytotoxicity against human KB cells. The class given is functional.
In the next assay the test system is BC1. Briefly: Cytotoxicity against human BC1 cells. The format is functional, cell-based.
The subject of the next assay is Lu1. Briefly: Cytotoxicity against human Lu1 cells. The format is functional, cell-based.
The test system of another assay is LNCaP. Briefly: Cytotoxicity against human LNCAP cells. The class given is functional, cell-based.
In a further assay the test system is U-373MG ATCC. Briefly: Cytotoxicity against human U373 cells. The class given is functional, cell-based.
A further assay deals with ZR-75-1. Briefly: Cytotoxicity against human ZR-75-1 cells. The class given is functional, cell-based.
Assay [1] is described as follows: Induction of DNA scission activity in at 25 ug/mL.

Values after ≈ are worked out from the molar mass of the structure shown. Active and inactive are the calls of the source. No cut-off for these calls is given here.

In the case of `C=C[C@H](c1ccccc1)c1cc(OC)c(O)cc1OC`, the outcome with KB, with BC1, in the assay on Lu1, in the assay on LNCaP, in the assay on U-373MG ATCC and with ZR-75-1 was inactive.
`CO[C@H]1CC(=O)C=CC[C@]1(O)/C=C\c1ccccc1` [MIMOSIFOLENONE]: in the assay with KB (read-out: ED50 (the source's name)), the EC50 came to 3.3 µg/mL (≈ 12.8 µM). In addition, the result in assay [1] was inactive.

The values are drawn from ChEMBL document CHEMBL1158191, “Two new aromatic constitutents from the rootwood of Aeschynomene mimosifolia” (1996).
